Key:
[1] = test system: Hepatitis C virus; experiment: Antiviral activity against HCV1a by replicon assay; assay type: functional, organism-based, Hepacivirus hominis; settings: subtype 1a
[2] = Ratio of drug level in liver to plasma in rat at 10 mg/kg, po after 6 hrs; assay type: ADME, organism-based
[3] = Oral bioavailability in rat at 10 mg/kg; assay type: ADME, organism-based; settings: in vivo
[4] = test system: Hepatitis C virus; experiment: Antiviral activity against HCV1b by replicon assay in presence of 40% human serum; assay type: functional, organism-based, Hepacivirus hominis; settings: genotype 1b
[5] = AUC (0 to 24 hrs) in rat at 5 mg/kg, iv; assay type: ADME, organism-based; set-up: dose 5 mg/kg, time < 24 hr, route intravenous; settings: in vivo
[6] = AUC (0 to 24 hrs) in rat at 10 mg/kg, po; assay type: ADME, organism-based; set-up: time < 24 hr, dose 10 mg/kg, route oral; settings: in vivo
[7] = AUC (0 to 24 hrs) in dog at 1 mg/kg, iv; assay type: ADME, organism-based, Canis lupus familiaris; set-up: dose 1 mg/kg, time < 24 hr, route intravenous; settings: in vivo
[8] = AUC (0 to 24 hrs) in dog at 3 mg/kg, po; assay type: ADME, organism-based, Canis lupus familiaris; set-up: time < 24 hr, dose 3 mg/kg, route oral; settings: in vivo
[9] = AUC (0 to 24 hrs) in cynomolgus monkey at 1 mg/kg, iv; assay type: ADME, organism-based, Macaca fascicularis; set-up: time < 24 hr, dose 1 mg/kg, route intravenous; settings: in vivo
[10] = AUC (0 to 24 hrs) in cynomolgus monkey at 3 mg/kg, po; assay type: ADME, organism-based, Macaca fascicularis; set-up: dose 3 mg/kg, time < 24 hr, route oral; settings: in vivo
[11] = Oral bioavailability in dog at 3 mg/kg; assay type: ADME, organism-based, Canis lupus familiaris; settings: in vivo
[12] = Oral bioavailability in cynomolgus monkey at 3 mg/kg; assay type: ADME, organism-based, Macaca fascicularis; settings: in vivo
[13] = Ratio of drug level in liver to plasma in rat at 10 mg/kg, po after 48 hrs; assay type: ADME, organism-based
[14] = Solubility in mid-range pH solutions; assay type: physicochemical
[15] = test system: Hepatitis C virus; experiment: Antiviral activity against HCV1b by replicon assay; assay type: functional, organism-based, Hepacivirus hominis; settings: genotype 1b
[16] = Half life in human liver microsomes; assay type: ADME
[17] = Half life in cynomolgus monkey liver microsomes; assay type: ADME, Macaca fascicularis
[18] = (§1) Drug uptake in rat at 10 mg/kg, po liver after 48 hrs; assay type: ADME, organism-based; settings: liver, read-out: Drug uptake
[19] = Clearance in rat at 10 mg/kg, po; assay type: ADME, organism-based; settings: in vivo
[20] = in vitro; settings: rat, liver microsomes
Description: Metabolic stability in rat liver microsomes assessed as compound remaining after 10 mins

[21] = target: Voltage-gated inwardly rectifying potassium channel KCNH2 (Homo sapiens, UniProt Q12809); experiment: Inhibition of human ERG by FLIPR assay
[22] = Permeability of the compound at pH 7.4 by PAMPA; assay type: ADME; settings: read-out: permeability
[23] = Drug uptake in rat at 10 mg/kg, po liver after 4 hrs; assay type: ADME, organism-based; settings: read-out: Drug uptake
[24] = Drug uptake in rat at 10 mg/kg, po liver after 6 hrs; assay type: ADME, organism-based; settings: read-out: Drug uptake
[25] = test system: Liver; experiment: as §1; assay type: ADME, organism-based; settings: in vivo, 48 h, BLD = below limit of detection
[26] = Plasma concentration in rat at 10 mg/kg, po after 6 hrs; assay type: ADME, organism-based

Chain of Voltage-gated inwardly rectifying potassium channel KCNH2 (Q12809 whole entry): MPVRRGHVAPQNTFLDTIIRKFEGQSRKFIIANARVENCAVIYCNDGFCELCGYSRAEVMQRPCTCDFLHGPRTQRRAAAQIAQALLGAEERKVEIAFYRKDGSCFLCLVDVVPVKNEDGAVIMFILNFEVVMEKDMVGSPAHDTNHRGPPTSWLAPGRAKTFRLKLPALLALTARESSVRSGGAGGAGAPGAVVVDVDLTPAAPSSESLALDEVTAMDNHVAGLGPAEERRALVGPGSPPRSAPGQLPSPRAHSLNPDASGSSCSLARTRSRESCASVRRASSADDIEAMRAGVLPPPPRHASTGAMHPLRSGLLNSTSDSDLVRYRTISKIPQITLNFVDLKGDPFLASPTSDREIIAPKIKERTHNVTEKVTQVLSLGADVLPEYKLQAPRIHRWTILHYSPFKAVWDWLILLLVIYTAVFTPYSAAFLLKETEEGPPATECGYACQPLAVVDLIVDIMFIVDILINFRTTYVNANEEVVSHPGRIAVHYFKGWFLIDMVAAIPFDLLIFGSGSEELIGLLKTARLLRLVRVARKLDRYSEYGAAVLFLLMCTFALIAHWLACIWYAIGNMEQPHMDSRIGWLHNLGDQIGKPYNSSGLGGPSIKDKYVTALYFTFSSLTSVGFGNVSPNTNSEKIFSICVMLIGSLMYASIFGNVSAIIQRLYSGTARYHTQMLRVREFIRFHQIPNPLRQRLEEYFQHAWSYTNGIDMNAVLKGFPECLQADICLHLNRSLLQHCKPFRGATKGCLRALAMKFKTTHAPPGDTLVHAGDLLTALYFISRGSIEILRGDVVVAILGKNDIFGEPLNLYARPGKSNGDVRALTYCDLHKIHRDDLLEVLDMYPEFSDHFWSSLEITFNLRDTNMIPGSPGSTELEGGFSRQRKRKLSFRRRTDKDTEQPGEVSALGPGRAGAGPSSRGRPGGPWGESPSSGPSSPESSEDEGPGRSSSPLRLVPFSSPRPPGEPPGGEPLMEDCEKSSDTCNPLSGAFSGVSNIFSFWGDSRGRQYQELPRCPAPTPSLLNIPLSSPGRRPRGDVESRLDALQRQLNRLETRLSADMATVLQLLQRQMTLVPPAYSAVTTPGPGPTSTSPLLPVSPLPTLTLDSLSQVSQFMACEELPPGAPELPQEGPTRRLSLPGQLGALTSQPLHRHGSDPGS

Q: Which results are given for `COc1ccc2c(c1)[C@@H]1C[C@]1(C(=O)N1C3CCC1CN(C)C3)Cn1c-2c(C2CCCCC2)c2ccc(C(=O)NS(=O)(=O)C(C)C)cc21`?
A: EC50 [1]: 7 nM; Kp at 6 h [2]: 20; bioavailability [3]: 65%; EC50 [4]: 20 nM; AUC(0-t) at 24 h [5]: 18 µM·h; AUC(0-t) at 24 h [6]: 16 µM·h; AUC(0-t) at 24 h [7]: 36 µM·h; AUC(0-t) at 24 h [8]: 124 µM·h; AUC(0-t) at 24 h [9]: 7 µM·h; AUC(0-t) at 24 h [10]: 5.4 µM·h; bioavailability [11]: 100%; bioavailability [12]: 25%; Kp at 48 h [13]: 11; solubility [14]: soluble

Q: What does the source list for `COc1ccc2c(c1)[C@H]1C[C@@]1(C(=O)N1C3CCC1CN(C)C3)Cn1c-2c(C2CCCCC2)c2ccc(C(=O)NS(=O)(=O)C(C)C)cc21`?
A: EC50 [1]: 196 nM; EC50 [15]: 148 nM

Q: With `COc1ccc2c(c1)[C@@H]1C[C@]1(C(=O)N1C3CCC1CN(C)C3)Cn1c-2c(C2CCCCC2)c2ccc(C(=O)NS(=O)(=O)C3CCC3)cc21` as the compound, how does the EC50 [15] read?
A: 5 nM

Q: And the half-life [16]?
A: 70.5 min

Q: What about the half-life [17] of the same compound?
A: 65.5 min

Q: And the concentration at 48 h [18]?
A: 0.07 µM

Q: And the CL/F [19]?
A: 13.4 mL/min/kg

Q: What about the bioavailability [3] of the same compound?
A: 28%

Q: What about the EC50 [4] of the same compound?
A: 70 nM

Q: What about the remaining at 10 min [20] of the same compound?
A: 87.8%

Q: Which EC50 [15] does the source give for `COc1ccc2c(c1)[C@@H]1C[C@]1(C(=O)N1C3CCC1CN(C)C3)Cn1c-2c(C2CCCCC2)c2ccc(C(=O)NS(=O)(=O)CC(C)C)cc21` here?
A: 2 nM

Q: And the half-life [16]?
A: > 72 min

Q: What about the half-life [17] of the same compound?
A: 24.4 min

Q: What about the Kp at 6 h [2] of the same compound?
A: 47

Q: And the IC50 [21]?
A: 16600 nM

Q: What about the bioavailability [3] of the same compound?
A: 41%

Q: And the EC50 [4]?
A: 80 nM

Q: What about the Kp at 48 h [13] of the same compound?
A: 4

Q: And the remaining at 10 min [20]?
A: 100%

Q: Which results are given for `COc1ccc2c(c1)C1CC1(C(=O)N1C3CCC1CN(C)C3)Cn1c-2c(C2CCCCC2)c2ccc(C(=O)NS(=O)(=O)N(C)C)cc21` (racemic)?
A: EC50 [15]: 12 nM; half-life [16]: 76 min; Papp [22]: 71.3 ×10⁻⁶ cm/s; concentration at 4 h [23]: 69 µM; remaining at 10 min [20]: 100%

Q: With `COc1ccc2c(c1)C1CC1(C(=O)N1C3CCC1CN(C)C3)Cn1c-2c(C2CCCCC2)c2ccc(C(=O)NS(=O)(=O)C3CCCC3)cc21` (racemic) as the compound, how does the EC50 [1] read?
A: 24 nM

Q: What about the EC50 [15] of the same compound?
A: 62 nM

Q: What about the half-life [16] of the same compound?
A: > 60 min

Q: What about the concentration at 6 h [24] of the same compound?
A: 35.3 µM

Q: What about the half-life [17] of the same compound?
A: 18.2 min

Q: And the Kp at 6 h [2]?
A: 36

Q: And the CL/F [19]?
A: 7.7 mL/min/kg

Q: With `COc1ccc2c(c1)C1CC1(C(=O)N1C3CCC1CN(C)C3)Cn1c-2c(C2CCCCC2)c2ccc(C(=O)NS(=O)(=O)CC(C)C)cc21` (racemic) as the compound, how does the EC50 [1] read?
A: 14 nM

Q: And the EC50 [15]?
A: 22 nM

Q: And the half-life [16]?
A: > 60 min

Q: And the concentration at 6 h [24]?
A: 88.3 µM

Q: And the half-life [17]?
A: 24.5 min

Q: And the Kp at 6 h [2]?
A: 150

Q: And the CL/F [19]?
A: 9.2 mL/min/kg

Q: Which results are given for `COc1ccc2c(c1)C1CC1(C(=O)N1C3CCC1CN(C)C3)Cn1c-2c(C2CCCCC2)c2ccc(C(=O)NS(=O)(=O)CC3CC3)cc21` (racemic)?
A: EC50 [1]: 5 nM; EC50 [15]: 22 nM; half-life [16]: 200 min; half-life [17]: 39 min; concentration at 48 h [18]: 0.15 µM; CL/F [19]: 19.6 mL/min/kg; bioavailability [3]: 13.7%

Q: With `COc1ccc2c(c1)C1CC1(C(=O)N1C3CCC1CN(C)C3)Cn1c-2c(C2CCCCC2)c2ccc(C(=O)NS(=O)(=O)C3CCC3)cc21` (racemic) as the compound, how does the EC50 [1] read?
A: 23 nM

Q: What about the EC50 [15] of the same compound?
A: 40 nM

Q: What about the half-life [16] of the same compound?
A: > 60 min

Q: What about the concentration at 6 h [24] of the same compound?
A: 38.8 µM

Q: And the half-life [17]?
A: 46.5 min

Q: What about the Kp at 6 h [2] of the same compound?
A: 67

Q: And the CL/F [19]?
A: 5.2 mL/min/kg

Q: Which EC50 [1] does the source give for `COc1ccc2c(c1)C1CC1(C(=O)N1C3CCC1CN(C)C3)Cn1c-2c(C2CCCCC2)c2ccc(C(=O)NS(=O)(=O)CC3CCC3)cc21` (racemic) here?
A: 15 nM

Q: And the EC50 [15]?
A: 56 nM

Q: What about the half-life [16] of the same compound?
A: 45 min

Q: And the half-life [17]?
A: 9 min

Q: And the Drug uptake [25]?
A: BLD

Q: What about the CL/F [19] of the same compound?
A: 13.3 mL/min/kg

Q: What about the bioavailability [3] of the same compound?
A: 19.1%

Q: For `CCN(C)S(=O)(=O)NC(=O)c1ccc2c(C3CCCCC3)c3n(c2c1)CC1(C(=O)N2C4CCC2CN(C)C4)CC1c1cc(OC)ccc1-3` (racemic), which EC50 [1] is on record?
A: 14 nM

Q: What about the EC50 [15] of the same compound?
A: 13 nM

Q: What about the half-life [16] of the same compound?
A: 27.3 min

Q: What about the Papp [22] of the same compound?
A: 56.1 ×10⁻⁶ cm/s

Q: And the concentration at 6 h [24]?
A: 36.4 µM

Q: And the concentration at 6 h [26]?
A: 0.178 µM

Q: And the remaining at 10 min [20]?
A: 94%

Source: ChEMBL document CHEMBL3758092, “Discovery and preclinical evaluation of potent, orally bioavailable, metabolically stable cyclopropylindolobenzazepine acylsulfonamides as thumb site 1 inhibitors of the hepatitis c virus NS5B RNA-dependent, RNA polymerase” (Bioorg Med Chem Lett, 2016)
